Assays:
HL-60 [1] = experiment: Antiproliferative activity against human HL60 cells after 48 hrs by MTT assay; type: functional, cell-based; conditions: HL-60, 48 h
HL-60 [2] = experiment: Cell cycle arrest in human HL60 cells assessed as accumulation at S phase at 0.5 uM after 24 hrs using propidium iodide staining by flow cytometry (reference value: 17.62%); type: functional
HL-60 [3] = experiment: Cell cycle arrest in human HL60 cells assessed as accumulation at G2/M phase at 0.5 uM after 24 hrs using propidium iodide staining by flow cytometry (reference value: 22.26%); type: functional
HL-60 [4] = experiment: Induction of apoptosis in human HL60 cells after 48 hrs using propidium iodide by flow cytometry; type: functional, cell-based; conditions: for EC50: HL-60, 48 h
HL-60 [5] = experiment: Induction of apoptosis in human HL60 cells assessed as fractions of fragmented DNA at 0.5 uM after 24 hrs using propidium iodide staining by flow cytometry (reference value: 0.53%); type: functional
HL-60 [6] = experiment: Induction of apoptosis in human HL60 cells assessed as fractions of fragmented DNA at 1 uM after 48 hrs using propidium iodide staining by flow cytometry (reference value: 1.66%); type: functional
[7] = Inhibition of polymerization of tubulin by turbidimetry
HL-60 [8] = experiment: Cell cycle arrest in human HL60 cells assessed as accumulation at G0/G1 phase at 0.5 uM after 24 hrs using propidium iodide staining by flow cytometry (reference value: 55.47%); type: functional
HL-60 [9] = experiment: Induction of apoptosis in human HL60 cells assessed as fractions of fragmented DNA at 0.05 uM after 48 hrs using propidium iodide staining by flow cytometry (reference value: 1.66%); type: functional
HL-60 [10] = experiment: Induction of apoptosis in human HL60 cells assessed as fractions of fragmented DNA at 0.5 uM after 48 hrs using propidium iodide staining by flow cytometry (reference value: 1.66%); type: functional
HL-60 [11] = experiment: Induction of apoptosis in human HL60 cells assessed as fractions of fragmented DNA at 0.25 uM after 48 hrs using propidium iodide staining by flow cytometry (reference value: 1.66%); type: functional
HL-60 [12] = experiment: Induction of apoptosis in human HL60 cells assessed as fractions of fragmented DNA at 0.1 uM after 24 hrs using propidium iodide staining by flow cytometry (reference value: 0.53%); type: functional
HL-60 [13] = experiment: Cell cycle arrest in human HL60 cells assessed as accumulation at G2/M phase at 0.1 uM after 24 hrs using propidium iodide staining by flow cytometry (reference value: 22.26%); type: functional
HL-60 [14] = experiment: Ratio of compound EC50 to E7010 EC50 for human HL60 cells; type: functional
HL-60 [15] = experiment: Cell cycle arrest in human HL60 cells assessed as accumulation at S phase at 0.1 uM after 24 hrs using propidium iodide staining by flow cytometry (reference value: 17.62%); type: functional
HL-60 [16] = experiment: Cell cycle arrest in human HL60 cells assessed as accumulation at G0/G1 phase at 0.1 uM after 24 hrs using propidium iodide staining by flow cytometry (reference value: 55.47%); type: functional
HL-60 [17] = experiment: Induction of apoptosis in human HL60 cells assessed as fractions of fragmented DNA at 0.1 uM after 48 hrs using propidium iodide staining by flow cytometry (reference value: 1.66%); type: functional

## COc1cc(C(=O)N2CCc3ccccc32)cc(OC)c1OC
HL-60 [1]
  IC50: 2 µM

## COc1cc(C2C=C(c3cccs3)Nc3ncnn32)cc(OC)c1OC (configuration not stated)
HL-60 [2]
  Activity: 15.16%
HL-60 [3]
  Activity: 25.93%
HL-60 [4]
  Activity: Dose-dependent effect
  EC50: 0.78 µM
HL-60 [5]
  Activity: 0.48%
HL-60 [1]
  IC50: 0.1 µM
HL-60 [6]
  Activity: 85.69%
[7]
  IC50: 12.8 µM
HL-60 [8]
  Activity: 53.87%
HL-60 [9]
  Activity: 6.03%
HL-60 [10]
  Activity: 10.35%

## COc1cc(C2C=C(c3ccc(C)cc3)Nc3ncnn32)cc(OC)c1OC (configuration not stated)
HL-60 [11]
  Activity: 90.56%
HL-60 [12]
  Activity: 22.94%
HL-60 [4]
  Activity: Dose-dependent effect
  EC50: 0.07 µM
HL-60 [13]
  Activity: 48.64%
HL-60 [1]
  IC50: 0.13 µM
[7]
  IC50: 12.8 µM
HL-60 [14]
  Ratio EC50: 2
HL-60 [15]
  Activity: 16.5%
HL-60 [16]
  Activity: 9.7%
HL-60 [17]
  Activity: 89.85%
HL-60 [9]
  Activity: 4.61%

## COc1cc(C(=O)c2c(C)cn3c(CCC#N)cccc23)cc(OC)c1OC
HL-60 [1]
  IC50: 1.4 µM
[7]
  IC50: 5 µM

## COc1cc(C2C=C(c3cccc(NC(C)=O)c3)Nc3ncnn32)cc(OC)c1OC (configuration not stated)
HL-60 [1]
  IC50: 0.33 µM
[7]
  IC50: > 25 µM

## COc1cc(C(=O)c2c(-c3ccccc3)cc3ccccn23)cc(OC)c1OC
HL-60 [1]
  IC50: 0.6 µM
[7]
  IC50: 20 µM

## COc1ccc(C2=CC(c3cc(OC)c(OC)c(OC)c3)n3ncnc3N2)cc1OC (configuration not stated)
HL-60 [1]
  IC50: 0.34 µM
[7]
  IC50: > 24 µM

## COc1ccccc1NC(=O)CSc1nnc(-c2cc(OC)c(OC)c(OC)c2)n1-c1ccc(C)cc1
HL-60 [1]
  IC50: 2.4 µM

## COc1cc(C2C=C(c3ccccc3)Nc3ncnn32)cc(OC)c1OC (configuration not stated)
HL-60 [11]
  Activity: 60.88%
HL-60 [12]
  Activity: 0.81%
HL-60 [4]
  Activity: Dose-dependent effect
  EC50: 0.22 µM
HL-60 [13]
  Activity: 25.82%
HL-60 [1]
  IC50: 0.17 µM
[7]
  IC50: 13.7 µM
HL-60 [14]
  Ratio EC50: 2
HL-60 [15]
  Activity: 15.92%
HL-60 [16]
  Activity: 53.51%
HL-60 [17]
  Activity: 4.06%
HL-60 [9]
  Activity: 4.32%

## COc1cc(/C=C(/C(=O)c2cc(OC)c(OC)c(OC)c2)c2nc3ccccc3o2)cc(OC)c1OC
HL-60 [1]
  IC50: 1.7 µM

## COc1cc(C2C=C(c3ccc(Cl)cc3)Nc3ncnn32)cc(OC)c1OC (configuration not stated)
HL-60 [1]
  IC50: 0.39 µM
[7]
  IC50: > 25 µM

## COc1ccc(C2=CC(c3cc(OC)c(OC)c(OC)c3)n3ncnc3N2)cc1 (configuration not stated)
HL-60 [11]
  Activity: 92.36%
HL-60 [12]
  Activity: 0.93%
HL-60 [4]
  Activity: Dose-dependent effect
  EC50: 0.08 µM
HL-60 [13]
  Activity: 24.39%
HL-60 [1]
  IC50: 0.19 µM
[7]
  IC50: 10.4 µM
HL-60 [14]
  Ratio EC50: 2
HL-60 [15]
  Activity: 18.82%
HL-60 [16]
  Activity: 51.67%
HL-60 [17]
  Activity: 77.49%
HL-60 [9]
  Activity: 4.94%

## COc1cc(/C=C(/C(=O)O)c2ccc(-c3ccccc3)cc2)cc(OC)c1OC
HL-60 [1]
  IC50: 2.4 µM

## COc1ccc(/C=C(/C(=O)c2cc(OC)c(OC)c(OC)c2)c2nc3ccccc3o2)cc1
HL-60 [1]
  IC50: 2.4 µM

## COc1cc(C(=O)N2c3ccccc3CC2C)cc(OC)c1OC (configuration not stated)
HL-60 [1]
  IC50: 3.2 µM

## COc1cc(C(=O)/C(=C/c2cccnc2)c2nc3ccccc3o2)cc(OC)c1OC
HL-60 [1]
  IC50: 1.7 µM

## CCc1ccc(C2=CC(c3cc(OC)c(OC)c(OC)c3)n3ncnc3N2)cc1 (configuration not stated)
HL-60 [1]
  IC50: 0.37 µM
[7]
  IC50: > 25 µM

## COc1cc(C(=O)N2CCCc3ccccc32)cc(OC)c1OC
HL-60 [1]
  IC50: 2 µM

Reference: ChEMBL document CHEMBL1250532, “Structure-based virtual screening of novel tubulin inhibitors and their characterization as anti-mitotic agents” (Bioorg Med Chem, 2010)
